# Reference: patent US20250197409A1, “BIFUNCTIONAL COMPOUND AND PHARMACEUTICAL COMPOSITION COMPRISING THE BIFUNCTIONAL COMPOUND, AND METHOD FOR TREATING ANDROGEN RECEPTOR RELATED DISEASE BY USING THE SAME” (ANHORN MEDICINES CO., LTD., priority 2022, published 2025)
# Target: T1, androgen receptor (Homo sapiens, UniProt P10275, T878A)
# T1 construct: host or cells: LNCaP.FGC
# Assay: Androgen receptor degradation assay using Western blot analysis
# Format: cell-based
# Conditions: LNCaP.FGC cells, serial 10x dilutions from 100 nM; read-out: AR DC50 (concentration needed for 50% AR degradation)
# Summary of the method: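 LNCaP.FGC cells (2×10^5/well) treated with 10-fold serial dilutions in RPMI from 100 nM stock; untreated cells as negative control. AR Western signal normalized to GAPDH, expressed as % remaining versus untreated (100%). DC50 derived from calibration curve of serial dilutions.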
# T1 sequence (P10275 whole entry T878A): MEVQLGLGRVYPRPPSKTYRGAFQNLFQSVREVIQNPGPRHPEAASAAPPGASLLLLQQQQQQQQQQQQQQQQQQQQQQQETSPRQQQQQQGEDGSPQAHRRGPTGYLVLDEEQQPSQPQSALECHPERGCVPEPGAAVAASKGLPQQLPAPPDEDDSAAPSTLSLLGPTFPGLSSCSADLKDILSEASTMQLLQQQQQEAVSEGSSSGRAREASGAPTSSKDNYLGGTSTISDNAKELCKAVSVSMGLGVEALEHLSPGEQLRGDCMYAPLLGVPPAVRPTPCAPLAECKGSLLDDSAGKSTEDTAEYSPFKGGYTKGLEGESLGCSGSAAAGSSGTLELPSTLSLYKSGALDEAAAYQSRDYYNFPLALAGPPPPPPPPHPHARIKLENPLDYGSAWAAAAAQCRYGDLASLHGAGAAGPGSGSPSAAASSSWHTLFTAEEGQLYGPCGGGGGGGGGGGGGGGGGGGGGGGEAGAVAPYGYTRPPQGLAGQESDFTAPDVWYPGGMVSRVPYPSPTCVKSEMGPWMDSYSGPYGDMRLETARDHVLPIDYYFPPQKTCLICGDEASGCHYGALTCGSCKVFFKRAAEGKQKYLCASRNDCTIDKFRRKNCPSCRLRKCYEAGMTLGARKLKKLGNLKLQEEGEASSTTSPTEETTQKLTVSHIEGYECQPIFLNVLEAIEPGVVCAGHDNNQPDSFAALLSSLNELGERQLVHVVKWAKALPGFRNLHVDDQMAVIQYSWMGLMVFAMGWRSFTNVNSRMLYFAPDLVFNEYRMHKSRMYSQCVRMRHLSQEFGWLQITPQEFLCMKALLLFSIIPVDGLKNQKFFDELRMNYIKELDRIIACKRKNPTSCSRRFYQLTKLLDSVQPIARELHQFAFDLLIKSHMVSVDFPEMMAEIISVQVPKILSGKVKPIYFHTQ
# T1 sequence (Q96SW2 whole entry partner): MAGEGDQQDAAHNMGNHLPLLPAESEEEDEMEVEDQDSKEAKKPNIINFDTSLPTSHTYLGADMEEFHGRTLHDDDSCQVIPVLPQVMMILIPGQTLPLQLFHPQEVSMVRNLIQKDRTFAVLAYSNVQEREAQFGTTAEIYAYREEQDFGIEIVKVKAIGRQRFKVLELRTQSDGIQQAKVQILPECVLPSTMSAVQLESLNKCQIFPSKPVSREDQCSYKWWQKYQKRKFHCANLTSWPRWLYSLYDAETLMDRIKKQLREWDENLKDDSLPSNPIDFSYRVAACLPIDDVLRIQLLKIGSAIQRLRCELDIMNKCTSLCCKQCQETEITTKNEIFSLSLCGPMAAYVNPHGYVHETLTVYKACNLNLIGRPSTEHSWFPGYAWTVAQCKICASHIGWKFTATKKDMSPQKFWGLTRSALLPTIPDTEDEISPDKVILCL
row,DC50 [nM],Structure (SMILES)
1,25 to 100,Cn1c2c(c3ccc(OCCOC4CC5(CCN(c6ccc(C(=O)N[C@H]7CC[C@H](Oc8ccc(C#N)c(Cl)c8)CC7)nn6)C5)C4)cc31)C(=O)N(C1CCC(=O)NC1=O)C2=O (stereo partly drawn) [Compound 174]
2,25 to 100,Cn1c2c(c3ccc(OCCCOC4CC5(CCN(c6ccc(C(=O)N[C@H]7CC[C@H](Oc8ccc(C#N)c(Cl)c8)CC7)nn6)C5)C4)cc31)C(=O)N(C1CCC(=O)NC1=O)C2=O (stereo partly drawn) [Compound 179]
3,25 to 100,Cn1c2c(c3ccc(OCCCCOC4CCN(c5ccc(C(=O)N[C@H]6CC[C@H](Oc7ccc(C#N)c(Cl)c7)CC6)nn5)CC4)cc31)C(=O)N(C1CCC(=O)NC1=O)C2=O (stereo partly drawn) [Compound 187]
4,25 to 100,CC(COc1ccc2c3c(n(C)c2c1)C(=O)N(C1CCC(=O)NC1=O)C3=O)CN1CCN(c2ccc(C(=O)N[C@H]3CC[C@H](Oc4ccc(C#N)c(Cl)c4)CC3)nn2)CC1 (stereo partly drawn) [Compound 188]
5,10 to 25,Cn1c2c(c3ccc(OCCCN4CCC5(CC4)CCN(c4ccc(C(=O)N[C@H]6CC[C@H](Oc7ccc(C#N)c(Cl)c7)CC6)nn4)CC5)cc31)C(=O)N(C1CCC(=O)NC1=O)C2=O (stereo partly drawn) [Compound 194]
6,10 to 25,Cn1c2c(c3ccc(OCCN4CCC5(CC4)CCN(c4ccc(C(=O)N[C@H]6CC[C@H](Oc7ccc(C#N)c(Cl)c7)CC6)nn4)CC5)cc31)C(=O)N(C1CCC(=O)NC1=O)C2=O (stereo partly drawn) [Compound 195]
7,< 10,Cn1c2c(c3ccc(OCCCN4CC=C(c5ccc(C(=O)N[C@H]6CC[C@H](Oc7ccc(C#N)c(Cl)c7)CC6)nn5)CC4)cc31)C(=O)N(C1CCC(=O)NC1=O)C2=O (stereo partly drawn) [Compound 196]
8,10 to 25,Cn1c2c(c3ccc(OCCN4CC=C(c5ccc(C(=O)N[C@H]6CC[C@H](Oc7ccc(C#N)c(Cl)c7)CC6)nn5)CC4)cc31)C(=O)N(C1CCC(=O)NC1=O)C2=O (stereo partly drawn) [Compound 197]
9,10 to 25,CC(COc1ccc2c3c(n(C)c2c1)C(=O)N(C1CCC(=O)NC1=O)C3=O)CN1CC=C(c2ccc(C(=O)N[C@H]3CC[C@H](Oc4ccc(C#N)c(Cl)c4)CC3)nn2)CC1 (stereo partly drawn) [Compound 200]
10,< 10,Cn1c2c(c3ccc(OCCCN4CCN(c5ccc(C(=O)N[C@H]6CC[C@H](Oc7ccc(C#N)c(Cl)c7)CC6)nn5)CC4)cc31)C(=O)N(C1CCC(=O)NC1=O)C2=O (stereo partly drawn) [Compound 207]

# Same assay, conditions: read-out: AR DC50 (concentration needed for 50% AR degradation); LNCaP.FGC cells, serial 10x dilutions from 100 nM
row,Structure (SMILES),DC50 [nM]
1,Cn1c2c(c3ccc(OCCOC4CC5(CCN(c6ccc(C(=O)N[C@H]7CC[C@H](N(C)c8ccc(C#N)c(Cl)c8)CC7)nn6)C5)C4)cc31)C(=O)N(C1CCC(=O)NC1=O)C2=O (stereo partly drawn) [Compound 175],10 to 25
2,CCn1c2c(c3ccc(OCCCOC4CC5(CCN(c6ccc(C(=O)N[C@H]7CC[C@H](Oc8ccc(C#N)c(Cl)c8)CC7)nn6)C5)C4)cc31)C(=O)N(C1CCC(=O)NC1=O)C2=O (stereo partly drawn) [Compound 176],25 to 100
3,CCn1c2c(c3ccc(OCCCOC4CC5(CCN(c6ccc(C(=O)N[C@H]7CC[C@H](N(C)c8ccc(C#N)c(Cl)c8)CC7)nn6)C5)C4)cc31)C(=O)N(C1CCC(=O)NC1=O)C2=O (stereo partly drawn) [Compound 177],25 to 100
4,Cn1c2c(c3ccc(OCCCOC4CC5(CCN(c6ccc(C(=O)N[C@H]7CC[C@H](N(C)c8ccc(C#N)c(Cl)c8)CC7)nn6)C5)C4)cc31)C(=O)N(C1CCC(=O)NC1=O)C2=O (stereo partly drawn) [Compound 178],10 to 25
5,CCn1c2c(c3ccc(OCCN4CCC5(CC4)CCN(c4ccc(C(=O)N[C@H]6CC[C@H](N(C)c7ccc(C#N)c(Cl)c7)CC6)nn4)CC5)cc31)C(=O)N(C1CCC(=O)NC1=O)C2=O (stereo partly drawn) [Compound 180],< 10
6,CCn1c2c(c3ccc(OCCCN4CCC5(CC4)CCN(c4ccc(C(=O)N[C@H]6CC[C@H](N(C)c7ccc(C#N)c(Cl)c7)CC6)nn4)CC5)cc31)C(=O)N(C1CCC(=O)NC1=O)C2=O (stereo partly drawn) [Compound 181],< 10
7,CCn1c2c(c3ccc(OCCN4CCC5(CC4)CCN(c4ccc(C(=O)N[C@H]6CC[C@H](Oc7ccc(C#N)c(Cl)c7)CC6)nn4)CC5)cc31)C(=O)N(C1CCC(=O)NC1=O)C2=O (stereo partly drawn) [Compound 182],< 10
8,CCn1c2c(c3ccc(OCCCN4CCC5(CC4)CCN(c4ccc(C(=O)N[C@H]6CC[C@H](Oc7ccc(C#N)c(Cl)c7)CC6)nn4)CC5)cc31)C(=O)N(C1CCC(=O)NC1=O)C2=O (stereo partly drawn) [Compound 183],10 to 25
9,CCn1c2c(c3ccc(OCCCCOC4CCN(c5ccc(C(=O)N[C@H]6CC[C@H](Oc7ccc(C#N)c(Cl)c7)CC6)nn5)CC4)cc31)C(=O)N(C1CCC(=O)NC1=O)C2=O (stereo partly drawn) [Compound 185],25 to 100
10,Cn1c2c(c3ccc(OCCCCOC4CCN(c5ccc(C(=O)N[C@H]6CC[C@H](N(C)c7ccc(C#N)c(Cl)c7)CC6)nn5)CC4)cc31)C(=O)N(C1CCC(=O)NC1=O)C2=O (stereo partly drawn) [Compound 186],10 to 25
11,CC(COc1ccc2c3c(n(C)c2c1)C(=O)N(C1CCC(=O)NC1=O)C3=O)CN1CCN(c2ccc(C(=O)N[C@H]3CC[C@H](N(C)c4ccc(C#N)c(Cl)c4)CC3)nn2)CC1 (stereo partly drawn) [Compound 189],10 to 25
12,CCn1c2c(c3ccc(OCCCN4CC=C(c5ccc(C(=O)N[C@H]6CC[C@H](Oc7ccc(C#N)c(Cl)c7)CC6)nn5)CC4)cc31)C(=O)N(C1CCC(=O)NC1=O)C2=O (stereo partly drawn) [Compound 190],10 to 25
13,CCn1c2c(c3ccc(OCCN4CC=C(c5ccc(C(=O)N[C@H]6CC[C@H](Oc7ccc(C#N)c(Cl)c7)CC6)nn5)CC4)cc31)C(=O)N(C1CCC(=O)NC1=O)C2=O (stereo partly drawn) [Compound 191],< 10
14,CCn1c2c(c3ccc(OCC(C)CN4CCN(c5ccc(C(=O)N[C@H]6CC[C@H](Oc7ccc(C#N)c(Cl)c7)CC6)nn5)CC4)cc31)C(=O)N(C1CCC(=O)NC1=O)C2=O (stereo partly drawn) [Compound 192],25 to 100
15,CCn1c2c(c3ccc(OCC(C)CN4CCN(c5ccc(C(=O)N[C@H]6CC[C@H](N(C)c7ccc(C#N)c(Cl)c7)CC6)nn5)CC4)cc31)C(=O)N(C1CCC(=O)NC1=O)C2=O (stereo partly drawn) [Compound 193],25 to 100
16,Cn1c2c(c3ccc(OCCCN4CCC5(CC4)CCN(c4ccc(C(=O)N[C@H]6CC[C@H](N(C)c7ccc(C#N)c(Cl)c7)CC6)nn4)CC5)cc31)C(=O)N(C1CCC(=O)NC1=O)C2=O (stereo partly drawn) [Compound 198],< 10
17,Cn1c2c(c3ccc(OCCN4CCC5(CC4)CCN(c4ccc(C(=O)N[C@H]6CC[C@H](N(C)c7ccc(C#N)c(Cl)c7)CC6)nn4)CC5)cc31)C(=O)N(C1CCC(=O)NC1=O)C2=O (stereo partly drawn) [Compound 199],10 to 25
18,CCn1c2c(c3ccc(OCCCN4CC=C(c5ccc(C(=O)N[C@H]6CC[C@H](N(C)c7ccc(C#N)c(Cl)c7)CC6)nn5)CC4)cc31)C(=O)N(C1CCC(=O)NC1=O)C2=O (stereo partly drawn) [Compound 201],10 to 25
19,CCn1c2c(c3ccc(OCCN4CC=C(c5ccc(C(=O)N[C@H]6CC[C@H](N(C)c7ccc(C#N)c(Cl)c7)CC6)nn5)CC4)cc31)C(=O)N(C1CCC(=O)NC1=O)C2=O (stereo partly drawn) [Compound 202],25 to 100
20,CCn1c2c(c3ccc(OC4CCN(CC5CCN(c6ccc(C(=O)N[C@H]7CC[C@H](Oc8ccc(C#N)c(Cl)c8)CC7)nn6)CC5)CC4)cc31)C(=O)N(C1CCC(=O)NC1=O)C2=O (stereo partly drawn) [Compound 203],< 10
21,CCn1c2c(c3ccc(OC4CCN(CC5CCN(c6ccc(C(=O)N[C@H]7CC[C@@H](Oc8ccc(C#N)c(Cl)c8)CC7)nn6)CC5)CC4)cc31)C(=O)N(C1CCC(=O)NC1=O)C2=O (stereo partly drawn) [Compound 204],10 to 25
22,CCn1c2c(c3ccc(OCCCN4CCN(c5ccc(C(=O)N[C@H]6CC[C@H](Oc7ccc(C#N)c(Cl)c7)CC6)nn5)CC4)cc31)C(=O)N(C1CCC(=O)NC1=O)C2=O (stereo partly drawn) [Compound 205],< 10
23,CCn1c2c(c3ccc(OCCN4CCC(c5ccc(C(=O)N[C@H]6CC[C@H](Oc7ccc(C#N)c(Cl)c7)CC6)nn5)CC4)cc31)C(=O)N(C1CCC(=O)NC1=O)C2=O (stereo partly drawn) [Compound 206],10 to 25
